We go through five compounds from PMC3759959, “Design, Synthesis and Antiviral Activity Studies of Schizonepetin Derivatives” (International Journal of Molecular Sciences, 2013).

Each structure is given as a SMILES string. Like-named read-outs stand apart in the source and are kept apart here.

One may read the IC50 as the midpoint of a concentration-inhibition curve.

The subject of one series is H1N1. The note with it: previous study; cited from earlier work.
Series [1] deals with abdominal capillary permeability. The note with it: cited from earlier work.
The test system of another series is influenza virus H3N2. The series is described as follows: Anti-H3N2 CPE inhibition assay in MDCK cells. The note with it: for antiviral activity against influenza virus H3N2 (in words): in vitro; for IC50: read-out: IC50, antiviral activity against H3N2 virus.
The subject of another series is Vero cells. Nature of the series: Cytotoxicity by CPE assay in Vero cells. The class given is cell-based. Conditions: cytotoxicity, Vero cells, 72 h, Reed-Muench method. As for the experimental part:
(§1) The cytotoxicity was evaluated by cytopathic effect (CPE) inhibition assay. Vero cells were seeded into 96-well plates. After cells had been incubated for 24 h at 37 °C in 5% CO2, they were exposed to drugs with two-fold serial dilutions. Untreated Vero cells were used as controls. All cultures were incubated again in 5% CO2 at 37 °C for 72 h. The cells were examined microscopically for the cytotoxicity effects. Then TC50 were calculated by the Reed-Muench method.

Another series has as its system MDCK cells. The series is described as follows: Cytotoxicity against MDCK cells by CPE assay. The class given is cell-based. As for the experimental part: as §1
The procedures for Anti-H3N2 studies and cytotoxicity against MDCK cells in vitro by CPE inhibition assay were similar to Anti HSV-1 studies and cytotoxicity against Vero cells.

The subject of the next series is HSV-1 virus. Nature of the series: Anti HSV-1 CPE inhibition assay in Vero cells. Conditions: for antiviral activity against HSV-1 (in words): in vitro; for IC50: read-out: IC50, antiviral activity against HSV-1 virus.
Where [2] appears, read: Human alphaherpesvirus 1, Vero, 72 h.

For `CC1=C2CC[C@@H](C)C[C@@]2(O)OC1=O` [Schizonepetin], the “therapeutic effect on the H1N1 infected mice” value with H1N1 is “obviously positive therapeutic effect”. Further, the “effect on increase of abdominal capillary permeability by HAc” value in series [1] was “inhibit the increase of abdominal capillary permeability”. The “antiviral activity against influenza virus H3N2 (in words)” value in the series with influenza virus H3N2 (CPE inhibition) is recorded as “low antiviral activity”. Besides, the IC50 with influenza virus H3N2 (CPE inhibition, MDCK cells) is more than 39.1 µM; in the series with HSV-1 virus (CPE inhibition, Vero cells, 30 TCID50, 72 h) it was more than 11.5 µM. The “TC50 (Antiviral activity against HSV-1 virus section)” value with Vero cells came to 834.2 µM. Further, the “TC50 (Antiviral activity against H3N2 virus section)” value with MDCK cells stood at 829.4 µM. The “antiviral activity against HSV-1 (in words)” value in the series on HSV-1 virus (CPE inhibition) is “low antiviral activity”.

Regarding `CCC(=O)O[C@@]12C[C@H](C)CCC1=C(C)C(=O)O2` [M5, (6R,7aR)-3,6-Dimethyl-2-oxo-2,4,5,6,7,7a-Hexahydrobenzofuran-7a-yl Propionate], the IC50 was more than 39.1 µM in the series on influenza virus H3N2 (Influenza A virus, H3N2, MDCK) and 26.9 µM in the series on HSV-1 virus (setting [2]). Besides, in the series with Vero cells, the “TC50 (Antiviral activity against HSV-1 virus section)” value was 66.0 µM. In the series with MDCK cells, the “TC50 (Antiviral activity against H3N2 virus section)” value worked out at 39.1 µM. Also, the “TI (TC50/IC50), HSV-1 virus” value in the series with HSV-1 virus came to 2.5. Moreover, the “antiviral activity against HSV-1 (in words)” value in the series with HSV-1 virus (CPE inhibition) was “obvious antiviral activity”.

With `CC1=C2CC[C@@H](C)C[C@@]2(OC(=O)c2cccs2)OC1=O` [M27, (6R,7aS)-3,6-Dimethyl-2-Oxo-2,4,5,6,7,7a-Hexahydrobenzofuran-7a-yl Thiophene-2-Carboxylate], the IC50 in the series with influenza virus H3N2 (Influenza A virus, H3N2, MDCK) is more than 39.1 µM; in the series with HSV-1 virus (setting [2]), more than 11.5 µM. Moreover, the “TC50 (Antiviral activity against HSV-1 virus section)” value with Vero cells worked out at 100.3 µM. In addition, the “TC50 (Antiviral activity against H3N2 virus section)” value with MDCK cells was 177.4 µM.

Turning to `CC1=C2CC[C@@H](C)C[C@@]2(OC(=O)c2ccc(C(F)(F)F)cc2)OC1=O` [M35, (6R,7aS)-3,6-Dimethyl-2-Oxo-2,4,5,6,7,7a-Hexahydrobenzofuran-7a-yl 4-(Trifluoromethyl) Benzoate], the IC50 was 29.7 µM with influenza virus H3N2 (Influenza A virus, H3N2, MDCK) and more than 11.5 µM in the series with HSV-1 virus (setting [2]). The “TI (TC50/IC50), H3N2 virus” value with influenza virus H3N2 (TI = TC50/IC50) stood at 2.5. In the series on influenza virus H3N2 (CPE inhibition), the “antiviral activity against influenza virus H3N2 (in words)” value is listed as “high antiviral activity”. For the same compound, the “TC50 (Antiviral activity against HSV-1 virus section)” value with Vero cells was 82.8 µM. The “TC50 (Antiviral activity against H3N2 virus section)” value in the series with MDCK cells was found to be 75.4 µM.

As for `CCO[C@@]12C[C@H](C)CCC1=C(C)C(=O)O2` [M2, (6R,7aR)-7a-Ethoxy-3,6-Dimethyl-5,6,7,7a-Tetrahydrobenzofuran-2(4H)-One], the IC50 was more than 39.1 µM with influenza virus H3N2 (Influenza A virus, H3N2, MDCK) and 100 µM in the series with HSV-1 virus (setting [2]). Also, in the series with Vero cells, the “TC50 (Antiviral activity against HSV-1 virus section)” value is 246.7 µM. Also, the “TC50 (Antiviral activity against H3N2 virus section)” value with MDCK cells is 139.5 µM. Moreover, the “TI (TC50/IC50), HSV-1 virus” value in the series with HSV-1 virus turned out to be 2.5. For the same compound, the “antiviral activity against HSV-1 (in words)” value with HSV-1 virus (CPE inhibition) is “obvious antiviral activity”.
